Values of other authors, collected in PubChem BioAssay AID1259409 (Chemical Carcinogenesis Research Information System (CCRIS), 2018).

System: rodent chemically induced tumor inhibition, incidence and multiplicity
Assay: CCRIS tumor inhibitor studies
Details: Carcinogen: DIETHYLNITROSAMINE, 55-18-5, N-METHYL-N-NITROSOUREA, 684-93-5, N-BUTYL-N-(4-HYDROXYBUTYL)NITROSAMINE, 3817-11-6, 1,2-DIM, Carcinogen: DIETHYLNITROSAMINE, 55-18-5, N-METHYL-N-NITROSOUREA, 684-93-5, N-BUTYL-N-(4-HYDROXYBUTYL)NITROSAMINE, 3817-11-6, 1,2-DIM, Dose [Inhibitor]: 0, 20 PPM IN DRINKING WATER FOR 23 WK BEGINNING 1 WK POST CARCINOGEN TREATMENT (STUDY DURATION: 28 WK), Route [Inhibitor]: ORAL, Species: RAT, Strain/Sex: F344/MALE, Dose [Carcinogen]: 100 MG/KG BW DEN ONCE, 20 MG/KG BW MNU ONCE ON DAYS 6,9, AND 12, 0.05% BBN IN DRINKING WATER FOR FIRST TWO WK, 40 MG/KG, Dose [Carcinogen]: 100 MG/KG BW DEN ONCE, 20 MG/KG BW MNU ONCE ON DAYS 6,9, AND 12, 0.05% BBN IN DRINKING WATER FOR FIRST TWO WK, 40 MG/KG

SMILES: COc1ccc2c(c1)c(CC(=O)O)c(C)n2C(=O)c1ccc(Cl)cc1
- tumour outcome (control, treated, inhibition, significance) (Target Tissue: Type of Lesion: LARGE INTESTINE: ADENOCARCINOMA, Promoter: NONE USED): 2/20 (10%), 0/19 (0%), 100%, not significant
- tumour outcome (control, treated, inhibition, significance) (Target Tissue: Type of Lesion: LARGE INTESTINE: ADENOMA, Promoter: NONE USED): 3/20 (15%), 0/19 (0%), 100%, not significant
- tumour outcome (control, treated, inhibition, significance) (Target Tissue: Type of Lesion: LIVER: HEPATOCELLULAR ADENOMA, HYPERPLASTIC NODULE, Promoter: NONE USED): 2/20 (10%), 7/19 (37%), -270%, not significant
- outcome (Target Tissue: Type of Lesion: LIVER: HEPATOCELLULAR ADENOMA, Promoter: NONE): 0/20 (0%), 0/19 (0%), 0%, not significant
- tumour outcome (control, treated, inhibition, significance) (Target Tissue: Type of Lesion: LUNG: ADENOCARCINOMA, Promoter: NONE UESD): 1/20 (5%), 0/19 (0%), 100%, not significant
